# Experimental data taken from patent US7815900B1, “Use of C3-C5 monosaccharides to protect keratinous fibers” (L'Oréal S.A., priority 2000, dated 2010).
# Key:
# [1] = DSC doublet peak area (α-structure) of hair after heat cycles; conditions: for Doublet Peak Area, normalized: 5 cycles
# Procedure: (§1) Normal blonde hair was bleached with Clairol Basic White Bleach (40 volume H2O2) for 20 min at standard room temperature and humidity. The bleached swatches were rinsed with tap water, and soaked in an excess of deionized water for 2 hours. The swatches were air-dried and equilibrated for 48 hours prior to further treatment. Some of the bleached swatches were subsequently “permed” using a Reforming Lotion (10% TGA, pH 8.8, 20 minutes) and then neutralized with 2% H2O2, pH 3 (5 minutes). The bleached/permed swatches were rinsed with tap water, and soaked in an excess of deionized water for 2 hours. The swatches were air-dried and equilibrated for 48 hours prior to further treatment. The swatches that were heat treated were treated with 0.06M solutions of hexoses and pentoses for 10 min at 45° C. and then were heated for 12 cycles. The swatches were rinsed after the heat application.
# In the DSC tests, finely cut hair (4-5 mg) was crimped in an aluminum pan that was punctured prior to each run. The samples were heated from 25° C. to 300° C., at a scanning rate of 20° C./min, with 5 runs per treatment. The results were averaged.
# (§2) Normal blonde hair was bleached with Clairol Basic White Bleach, 40 volume H2O2, for 20 min at room temperature. One batch of normal and bleached hair swatches underwent five heat cycles at 130° C., where one treatment cycle involved the following steps (1-4):
# (§3) 1. The swatches were treated with 0.06 M solutions of monosaccharides in deionized water (about 1 wt %) for 10 min at 45° C.
# (§4) 2. The treated swatches were blow-dried for 1 min.
# (§5) 3. The heat was applied for 1 min in the form of a flat hair iron Windmere “Solid Gold” (130° C.).
# (§6) 4. The swatches were rinsed and blot-dried with a paper-towel.
# (§7) The treatment solutions included four pentoses (D-xylose, D-arabinose, D-lyxose, and D-ribose, 1% each) and one hexose (1.2% D-glucose). Deionized water was used as a control treatment. After the heat experiment, the hair was rinsed in water, air-dried, and equilibrated for 24 hours in the humidity chamber at 25° C. and 50% RH prior to further testing. These swatches are referred to as treated at 130° C.
# (§8) A second batch of normal and bleached hair swatches were treated in a similar way and blow-dried, without application of the hot iron. The treatment was also repeated 5 times, the swatches from the second batch are referred to as treated at 45° C.
# Normal blonde hair was subjected to 12 heat cycles, as described in Example 2, using the following treatment solutions: 0.1% D-Xylose (pentose), 0.1% D-Erythrose (tetrose), and 0.1% D-Glyceraldehyde (triose). Each of the C3 to C5 monosaccharides was effective in protecting or reducing the damage to the α-structure of the hair, as compared to water treatment (Table 15).
# Normal blonde hair was subjected to 12 heat cycles, as described in Example 2, using 0.1 wt % of the pentose amine derivative, D-Lyxosylimine in deionized water.
# [2] = Dry tensile strength (Instron) after heat cycles; conditions: normal blonde hair, 0.06 M solutions, n = 50 fibers; for Work 25%: dry, 5 cycles at 45° C.; for Work 25% (Dry): 5 heat cycles at 130° C.
# Procedure: (§9) Tensile strength was determined using both the Instron (50 dry fibers per tests) and the Dia-Stron (100 wet fibers per test), with the stretching rate of 100 mm/min. The following parameters were determined: Young's Modulus (N/m^2), Work to stretch 25% (J/m^2); Extension to Break (degree of elongation) (%); Work to Break (J/m^2).
# as §2, §3, §4, §5, §6, §7, §8
# [3] = Dry tensile strength (Instron) after heat cycles
# Procedure: as §1, §9, §2, §3, §4, §5, §6, §7, §8
# Both the bleached and the bleached/permed hair were subjected to heat treatment, as in Example 2. The heat treatment experiment involved 12 heat cycles including application of sugar or control solution before each heat application, and rinsing after the heat application. Deionized water was used as a control treatment.
# After the heat experiment, the hair was rinsed in water, air-dried, and equilibrated for 24 h in the humidity chamber at 25° C. and 50% RH prior to further testing. The effect of the hexoses vs. pentoses on the dry tensile strength (INSTRON) and the alpha-structure (doublet peak area, DSC) was tested on the bleached hair (Table 13). The effect of a hexose (D-glucose) vs. a pentose (D-Xylose) on wet tensile strength (DIA-STRON) was tested both on the bleached and the bleached/permed hair (Table 14). Application of 0.06M solutions of pentoses protected the bleached and the bleached/permed hair against thermal damage (α-structure; wet and dry tensile strength).
# [4] = Wet tensile strength (Dia-Stron) after heat cycles; conditions: for Work 25% (Wet): 0.06 M solutions; for Work 25% (Wet) / Extension-Break / Work 25% / Work-Break / Young's Modulus: n = 100 fibers; for Extension-Break / Work 25% / Work-Break / Young's Modulus: 0.06 M, DIA-STRON; for Dia-Stron, wet fibers Extension: 1.0% solution, n = 100
# Procedure: Normal blonde hair was bleached with Clairol Basic White Bleach (40 volume H2O2) for 20 min at standard room temperature and humidity. The bleached swatches were rinsed with tap water, and soaked in an excess of deionized water for 2 hours. The swatches were air-dried and equilibrated for 48 hours prior to further treatment. Some of the bleached swatches were subsequently “permed” using a Reforming Lotion (10% TGA, pH 8.8, 20 minutes) and then neutralized with 2% H2O2, pH 3 (5 minutes). The bleached/permed swatches were rinsed with tap water, and soaked in an excess of deionized water for 2 hours. The swatches were air-dried and equilibrated for 48 hours prior to further treatment. The swatches that were heat treated were treated with 0.06M solutions of hexoses and pentoses for 10 min at 45° C. and then were heated for 12 cycles. The swatches were rinsed after the heat application. Tensile strength was determined using both the Instron (50 dry fibers per tests) and the Dia-Stron (100 wet fibers per test), with the stretching rate of 100 mm/min. The following parameters were determined: Young's Modulus (N/m^2), Work to stretch 25% (J/m^2); Extension to Break (degree of elongation) (%); Work to Break (J/m^2). Both the bleached and the bleached/permed hair were subjected to heat treatment, as in Example 2. The heat treatment experiment involved 12 heat cycles including application of sugar or control solution before each heat application, and rinsing after the heat application. Deionized water was used as a control treatment. After the heat experiment, the hair was rinsed in water, air-dried, and equilibrated for 24 h in the humidity chamber at 25° C. and 50% RH prior to further testing. The effect of the hexoses vs. pentoses on the dry tensile strength (INSTRON) and the alpha-structure (doublet peak area, DSC) was tested on the bleached hair (Table 13). The effect of a hexose (D-glucose) vs. a pentose (D-Xylose) on wet tensile strength (DIA-STRON) was tested both on the bleached and the bleached/permed hair (Table 14). Application of 0.06M solutions of pentoses protected the bleached and the bleached/permed hair against thermal damage (α-structure; wet and dry tensile strength).
# [5] = normal blonde hair, 5 cycles at 45° C., 0.06 M solutions
# [6] = normal blonde hair, 45° C. (blow drying)
# [7] = normal blonde hair, 130° C. (blow-drying + hot iron)
# [8] = normal blonde hair, 5 heat cycles at 130° C., 0.06 M solutions
# [9] = bleached hair after 12 heat cycles, 0.06 M solutions, n = 100 fibers
# [10] = bleached hair, 5 heat cycles at 130° C., 0.06 M solutions, n = 50 fibers
# [11] = dry bleached hair, 12 heat cycles, 0.06 M, INSTRON, n = 50 fibers
# [12] = dry, bleached hair, 5 cycles at 45° C., 0.06 M solutions, n = 50 fibers
# [13] = bleached hair after 12 heat cycles
# [14] = bleached/permed hair after 12 heat cycles
# [15] = wet bleached hair (blonde hair in the source) after 12 heat cycles
# [16] = wet bleached/permed hair after 12 heat cycles
Compound,"Doublet Peak Area [1, 5]","Doublet Peak Area, normalized [1, 6]","Doublet Peak Area, normalized [1, 7]","Doublet Peak Area [1, 8]",Work 25% [2],Work 25% (Dry) [2],"Work 25% (Dry) [3, 9]","Work 25% (Dry) [3, 10]","Extension-Break [3, 11]","Work 25% [3, 11]","Work-Break [3, 11]","Young's Modulus [3, 11]","Work 25% [3, 12]","Work 25% (Wet) [4, 13]","Work 25% (Wet) [4, 14]","Extension-Break [4, 15]","Work 25% [4, 15]","Work-Break [4, 15]","Young's Modulus [4, 15]","Extension-Break [4, 16]",other results
"O=C[C@H](O)[C@@H](O)[C@H](O)[C@H](O)CO [D-Glucose, reference compound]",11.65 +/− 4.98 J/g hair,11.65 +/− 4.98 J/g hair,7.60 +/− 1.01 J/g hair,7.60 +/− 1.01 J/g hair,837.0 +/− 255.9 J/m^2,836.9 +/− 119.6 J/m^2,913.9 +/− 158.2 J/m^2,864.7 +/− 184.4 J/m^2,56.01 +/− 7.21%,913.9 +/− 158.2 J/m^2,"2,599 +/− 604 J/m^2","4,623 +/− 813 MN/m^2",984.6 +/− 169.6 J/m^2,187.0 +/− 74.8 J/m^2,155.0 +/− 47.5 J/m^2,64.20 +/− 10.4%,187.0 +/− 74.8 J/m^2,"1,130 +/− 453 J/m^2",397.0 +/− 106.0 MN/m^2,63.50 +/− 7.65%,"protection against heat treatment based on tensile properties and DSC, in words ([4]; Example 2, 12 heat cycles): little or no protection; Work 25% [4, 16]: 155.0 +/− 47.5 J/m^2; Work-Break [4, 16]: 979.0 +/− 300 J/m^2; Young's Modulus [4, 16]: 136.0 +/− 92.5 MN/m^2"
O=C[C@H](O)[C@@H](O)[C@H](O)CO [D-Xylose],20.17 +/− 11.98 J/g hair,20.17 +/− 11.98 J/g hair,15.27 +/− 5.14 J/g hair,15.27 +/− 5.14 J/g hair,"1,155 +/− 224 J/m^2","1,150 +/− 818 J/m^2","1,204 +/− 215 J/m^2","1,051 +/− 191 J/m^2",55.28 +/− 7.08%,"1,204 +/− 215 J/m^2","3,161 +/− 771 J/m^2","5,802 +/− 1,161 MN/m^2","1,182 +/− 215 J/m^2",432.0 +/− 137.0 J/m^2,199.0 +/− 74.2 J/m^2,52.80 +/− 9.29%,432.0 +/− 137.0 J/m^2,"1,600 +/− 526 J/m^2",434.0 +/− 99.1 MN/m^2,54.30 +/− 4.70%,"Normalized area ([1]; normal blonde hair after 12 heat cycles, 1% in water): 16.05 +/− 5.05 J/g hair; Doublet Peak Area ([1]; normal blonde hair, 0.1 wt % solutions, 12 heat cycles at 130° C.): 12.74 +/− 2.32 J/g hair; protection of the hair structure as compared to water (DSC), in words ([1]; normal blonde hair, 12 heat cycles, 1% in water): appeared to protect the hair structure; protection of dry tensile strength, in words ([3]; hair treated 5 cycles at 45° C. and at 130° C.): improved protection both at 45 °C and at 130 °C; extension to break compared to non-treated or water-treated hair, in words ([4]; bleached and bleached/permed hair, 1% solution prior to heat application): significantly shorter; Dia-Stron, wet fibers Extension ([4]; bleached hair after 12 cycles at 130° C.): 52.80 +/− 9.29%; Dia-Stron, wet fibers Extension ([4]; bleached/permed hair after 12 cycles at 130° C.): 54.30 +/− 4.70%; protection against heat (wet tensile properties) compared to water and 1.2% D-glucose, in words ([4]; wet bleached and bleached/permed hair, 12 heat cycles, 1% solution): statistically significant protection against heat; Work 25% [4, 16]: 199.0 +/− 74.2 J/m^2; Work-Break [4, 16]: 620.0 +/− 231.0 J/m^2; Young's Modulus [4, 16]: 170.0 +/− 88.6 MN/m^2"
